Experimental data reported in patent US7560456B2, “Pesticidal pyridinecarboxamide derivatives” (Merial Limited, priority 2002, dated 2009).

Assays:
[1] = system: black bean aphids (Aphis fabae); experiment: whole plant or invertebrate; conditions: in Vicia faba, read-out: mortality among the aphids
[2] = system: black bean aphids (Aphis fabae); experiment: Method B: root-systemic test, aqueous solution of the formulated preparation pipetted into the bottle of field bean (Vicia faba) populated with aphids; type: in vivo; conditions: 10 ppm (based on content of active compound), 4 ml solution pipetted into bottle, after 3 and 6 days of storage, read-out: mortality among the aphids, by root-systemic action
Protocol: Germinated field bean seeds (Vicia faba) with seed roots were transferred into brown glass bottles filled with tap water. Four milliliters of an aqueous solution of the formulated preparation to be examined were pipetted into the brown glass bottle.
The field bean was then heavily populated with about 100 black bean aphids (Aphis fabae). Plants and aphids were then stored in a climatized chamber (16 hours of light/day, 25° C., 40-60% relative atmospheric humidity). After 3 and 6 days of storage, the root-systemic effect of the preparation on the aphids was determined.

## C=CCSC(=NC(=O)c1cnccc1C(F)(F)F)NCc1ccccc1 [Compound A-724, 1-benzyl-S-(2-propenyl)-3-(4-trifluoromethyl-3-pyridylcarbonyl)isothiourea]
[1]
  mortality at 100 ppm: ≥ 50%
[2]
  mortality at 10 ppm: ≥ 80%
